Data from patent US11660326B2, “Bacterial-binding peptides for treatment of infectious diseases and related inflammatory processes” (priority 2018, dated 2023).

How the values were obtained:
[1] = Solid phase binding assay (ELISA) of biotin-labeled peptides to immobilized LTA; set-up: species or system S. aureus; settings: biotin-labeled peptide 5-20 μg/mL; LTA 5 μg/mL coated
Procedure: (§1) FIG. 3. Binding of biotin-labeled CD6-derived peptides to immobilized PAMPs from Gram- and Gram+ origin. Increasing concentrations (5-20 μg/mL) of biotin-labeled CD6- (PD1, PD2, PD3 and cons), DMBT1- (pbs1), and CD5- (PD1) derived peptides were added to 96-well ELISA plates sensitized with E. coli 0111:B4 LPS (A) or S. aureus LTA (B) (5 μg/mL each in PBS). Following overnight incubation at 4° C. bound peptides or proteins were developed by addition of horseradish peroxidase (HRP)-labeled streptavidin and 3,3′,5,5′-tetramethylbenzidine (TMB) substrate and further readings at OD 405-620 nm. Results are expressed as mean±SD of duplicates from one representative experiment of three performed. Statistical analysis was performed by two-way ANOVA (*,P<0.05; **, P<0.01; ***, P<0.001).
(§2) Solid Phase Binding Assays. 96-well microtiter plates (Nunc, Roskilde, Denmark) were coated overnight at 4° C. with 5 μg/mL of purified LPS (E. coli 0111:B4, Sigma L2630) or LTA (S. aureus, Sigma L2515) in PBS, and then incubated for 2 h at room temperature in blocking solution (20 mM Tris-HCl pH 7.4 plus 0.05% Tween 20 and 1% BSA). Biotin-labeled peptides/proteins (2.5-20 μg/mL) were added and incubated overnight at 4° C. in blocking solution. After extensive washing, bound peptides/proteins were detected by the addition of horseradish peroxidase (HRP)-labeled streptavidin (1:5,000 dilution; DAKO) for 1 h at room temperature. Color was developed by adding 3,3′,5,5′-tetramethylbenzidine (TMB) liquid substrate (Sigma), and optical density read at 405-620 nm.

[2] = Solid phase binding assay (ELISA) of biotin-labeled peptides to immobilized LPS; set-up: species or system E. coli; settings: biotin-labeled peptide 5-20 μg/mL; LPS 5 μg/mL coated
Procedure: as §1, §2

[3] = tested on: mouse splenocytes exposed to LPS; assay: LPS-induced cytokine release by mouse splenocytes; assay type: cell-based, C57BL/6 mice; settings: LPS 0.5 μg/mL, 48 h, peptide 0.5, 5 and 20 μg/mL
Procedure: FIG. 6. Effect of CD6-derived peptides on in vitro LIPS-induced cytokine release by mouse splenocytes. Total spleen cell suspensions (2×10^5) from C57BL/6 mice (n=7) were stimulated in triplicate for 48 h with LPS (0.5 μg/mL), in the presence or absence of increasing concentrations (0.5, 5, and 20 μg/mL) of CD6-derived peptides (PD1, PD2, PD3, and Pcons). Cytokine levels in culture supernatants were determined by ELISA and results expressed in pg/mL as mean±SD of triplicates. Viability was >75% at 48 h in all experimental conditions. Statistical analysis was performed using a 2-tailed Mann-Whitney test, with confidence intervals of 95% (*, P<0.05; **, P<0.01; ***, P<0.001).
Spleens from 6-8 week old C57BL/6 mice (Charles River) were disaggregated by filtering through a cell strainer and, after erythrocyte lysis, cells were resuspended in RPMI 1640 with L-glutamine (Lonza) plus 10% fetal calf serum (BioWest), 100 U/mL penicillin, 100 μg/mL streptomycin and 50 μM 2-(3 Mercaptoethanol (Merck). Cells (2×10^5) were stimulated for 48 h (at 37° C. in a humidified atmosphere with 5% CO2) in U-bottomed 96-well plates (Biofil) containing LPS (0.5 μg/mL; E. coli O111:B4), in the presence or absence of increasing peptides (0.5-20 μg/mL). Culture supernatants were harvested and mouse cytokines measured by ELISA following manufacturer's instructions (BD Biosciences OptEIA sets).

[4] = Dynamic light scattering (DLS), hydrodynamic size of peptides in solution; assay type: physicochemical; settings: 10 μg/mL in PBS, 25° C.
Procedure: FIG. 5. Analysis of the hydrodynamic size of CD6-derived peptides in solution. The dynamic light scattering (DLS) analysis of the hydrodynamic diameter of CD6 (PD1, PD2, PD3, and Pcons) and DMBT-1/SAG (pbs1) derived peptides (10 μg/mL) in PBS is shown. The y axis represents the relative intensity of the scattered light; the x axis denotes the hydrodynamic diameter of the particles present in the solution. One representative experiment of four performed is shown (left). The numeric values obtained for each peptide are also shown (right).
The hydrodynamic diameters of peptides (10 μg/mL in PBS) were measured at 25° C. in a Zetasizer Nano S from Malvern Instruments (Worcestershire, UK) equipped with a 633 nm HeNe laser, as described (Saenz A, et al., 2010, Fluidizing effects of C-reactive protein on lung surfactant membranes: protective role of surfactant protein A, FASEB J 24:3662-73). Four scans were recorded for each sample, and samples were analyzed in triplicate.

[5] = tested on: mice undergoing CLP-induced septic shock; assay: Mouse survival following CLP-induced septic shock; assay type: in vivo, C57BL/6J mice; settings: single 6 mg/kg i.v. at +1 h post CLP; FIG. 7
Procedure: FIG. 7. Comparative therapeutic effects of i.v. infused CD6-derived peptides on mouse survival following Cecal Ligation and Puncture (CLP)-induced sepsis. (A, B) C57BL/6J mice were i.v. infused with saline (n=25) or single 6 mg/kg doses of unlabeled CD6- (PD1, n=8; PD2, n=16; PD3, n=15; Pcons, n=12) or DMBT1 (pbs1, n=13) derived peptides at +1 h post CLP induction. A sham group (n=3) was included. In all cases average percent survival was analyzed over time for each group and compared with the saline-treated group using the long-rank t-test (*, P<0.05; **, P<0.01; ***, P<0.001).
FIG. 8. Dose-, time- and via-dependent effects of CD6.PD3 infusion on mouse survival following CLP-induced sepsis. (A) C57BL/6 mice were i.v. infused at +1 h post CLP with saline (n=26) or single increasing doses (3 mg/kg, n=13; 6 mg/kg, n=15; and 12 mg/kg, n=8) of CD6.PD3 peptide. (B) C57BL/6 mice were i.v. infused with saline (n=4) or 6 mg/kg CD6.PD3 at different times post CLP (+1 h, n=5; +3 h, n=5; +6 h, n=6). (C) C57BL/6J mice were i.v. (n=11) or i.p. (n=9) infused with 6 mg/kg CD6.PD3 peptide or saline (n=9) at +1 h post CLP. In all cases, average percent of survival was analyzed over time and compared with the saline-treated group using a log-rank t-test (n.s., not significant; *, P<0.05. **, P<0.01; ***, P<0.001).
FIG. 10. Additive effects of combined administration of CD6.PD3 plus Imipenem/Cilastatin on mouse survival following CLP-induced sepsis. C57BL/6J mice were therapeutically infused at +1 h post CLP with saline (n=36), CD6.PD3 (6 mg/kg i.v.; n=25), Imipenem/Cilastatin (I/C, 50 mg/kg/12 h i.p.; n=9) or a combination of the two later (I/C+PD3, n=11). In all cases average percent survival was analyzed over time for each group and compared to the I/C plus CD6.PD3 group using the long-rank t-test (**, P<0.02; ***, P<0.002).
Animal procedures were approved by the Animal Experimentation Ethical Committee, University of Barcelona. High-grade mortality (≥90% mortality within the first 48-72 h) CLP-induced septic shock was induced in 8-10 week old C57BL/6J male mice (20-25 g; Charles River) as previously reported (Martinez-Florensa M, et al., 2017, Protective Effects of Human and Mouse Soluble Scavenger-Like CD6 Lymphocyte Receptor in a Lethal Model of Polymicrobial Sepsis, Antimicrob Agents Chemother 61:e01391-16).
Survival assays were analyzed by a Log-Rank χ^2 test using GraphPad Prism software. The significance of differences between experimental groups was determined by 2-tailed paired T test with 95% of confidence intervals (CI). P values were considered significant when P<0.05. Statistical analysis (mean±SEM) was performed using a 2-tailed Mann-Whitney test, with 95% of Cl.

[6] = depending on the G− strain used; read-out: Kd of the LPS/Polymixin B interaction; cited from earlier work
[7] = Endotoxin adsorption on peptide/protein-coated Eupergit beads (LAL assay); settings: 50 UI/mL LPS, 0-150 min, vs HSA- and rshCD5-coated controls
Procedure: FIG. 11. Endotoxin adsorption assays on immobilized CD6-derived peptides and proteins. Eupergit® beads coated with different CD6-derived peptides (PD2, PD3, and Pcons) (A) or proteins (rshCD5 and rshCD6) (B) were incubated for different periods of time (0, 30, 90 and 150 min) with a 50 UI/mL endotoxin solution. Limulus amoebocyte lysate activating activity (LAL activity) of supernatants was then monitored along time and the OD 405-620 nm represented. Beads coated with Human Serum Albumin (HSA) were used as negative controls. Shown are triplicates of a representative experiment from two independent performed. Statistical analysis was done by using the 2-tailed paired T test with 95% confidence interval (***, P<0.001).
Proteins or peptides (2.5 mg each) were immobilized via NH2 groups on macroporous acrylic EUPERGIT© beads (0.2 g; Röhm-Pharma GmbH, Germany) following a previously described protocol (Zimmermann M, et al., 1999, Endotoxin adsorbent based on immobilized human serum albumin. Clin Chem Lab Med 37:373-379). Peptide or protein-coated Eupergit® beads are obtained by incubation with stirring of the polymeric beads at room temperature with a solution of the peptides of the invention in sodium phosphate buffer 100 mM pH 8 for 24 hours. After incubation, the beads were washed 3 times with 3 M sodium chloride pH 7.0, 30 mM sodium phosphate buffer pH 4.0 and 30 mM sodium phosphate buffer pH 8.0. Finally, 154 mM sodium chloride solution pH 7.0 was added to the peptide or protein-coated beads.
LPS detection was performed by using the turbidimetric-kinetic Limulus Amebocyte Lysate (LAL) kit-QCL (50-650U, Lonza) following manufacturer's instructions. Protein/peptide-coated EUPERGIT® beads were incubated 1:1 (v:v) with the provided endotoxin solution (50 UI/mL) for different periods of time (0-150 min) at room temperature following manufacturer's instructions.

[8] = cited from earlier work
[9] = tested on: mouse models of septic shock; settings: cited from earlier work
[10] = tested on: pro-inflammatory cytokine (IL-1β, IL-6, TNF-α) release; settings: cited from earlier work

## GQLEVYLKDGW (CD5.PD1)
[1]
  binding to immobilized LTA (ELISA): no significant binding
[2]
  binding to immobilized LPS (ELISA): no significant binding

## GRVEVLFRGSW (CD6 Pcon) [CD6.cons, reference compound]
[3]
  IL-1β release: dose-dependent inhibitory effects
  IL-6 release: dose-dependent inhibitory effects
  IL-10 release: not
[4]
  hydrodynamic size, first (or single) peak: 1636±6 nm
  hydrodynamic size, second peak: 5493±7 nm
[5]
  survival: 25%
[1]
  binding to immobilized LTA (ELISA): dose-dependent binding
[2]
  binding to immobilized LPS (ELISA): dose-dependent binding

## GRVEVLYRGSW (DMBT-1.pbs1) [DMBT1.pbs1, reference compound]
[4]
  hydrodynamic size, first (or single) peak: 169±5 nm
  hydrodynamic size, second peak: 617±4 nm
[5]
  survival: 23.07%
[1]
  binding to immobilized LTA (ELISA): dose-dependent binding
[2]
  binding to immobilized LPS (ELISA): dose-dependent binding

## Polymixin B
[6]
  Kd: 100 to 900 nM

B1: rshCD6: recombinant soluble form of human CD6, SEQ ID NO.: 10 (protein)
chain: DQLNTSSAESELWEPGERLPVRLTNGSSSCSGTVEVRLEASWEPACGALWDSRAAEAVCRALGCGGAEAASQLAPPTPELPPPPAAGNTSVAANATLAGAPALLCSGAEWRLCEVVEHACRSDGRRARVTCAENRALRLVDGGGACAGRVEMLEHGEWGSVCDDTWDLEDAHVVCRQLGCGWAVQALPGLHFTPGRGPIHRDQVNCSGAEAYLWDCPGLPGQHYCGHKEDAGAVCSEHQSWRLTGGADRCEGQVEVHFRGVWNTVCDSEWYPSEAKVLCQSLGCGTAVERPKGLPHSLSGRMYYSCNGEELTLSNCSWRFNNSNLCSQSLAARVLCSASRSLHNLSTPEVPASVQTVTIESSVTVKIENKESR
modifications: rshCD6
[7]
  endotoxin levels (LAL assay): reduced endotoxin levels
[8]
  Kd affinities for bacterial PAMPs (LPS, LTA or PGN): in the nM range
[9]; i.p. administration, mice (EP 2143436)
  lethal effects caused by LPS-induced septic shock: counteracts the lethal effects
[9]; prophylactic infusion
  serum levels of pro-inflammatory cytokines (IL-1β, IL-6 and TNF-α): significantly reduces
[9]; prophylactic infusion, endotoxin, whole bacteria and peritonitis models
  mortality: significantly reduces mortality
[10]
  pro-inflammatory cytokine (IL-1β, IL-6, TNF-α) release triggered by LPS or LTA/PGN: down-modulates
